Test results: article PMC11397727, “Fast Screening of Tyrosinase Inhibitors in Coreopsis tinctoria Nutt. by Ligand Fishing Based on Paper-Immobilized Tyrosinase” (Molecules, 2024)

Target: T1, Mushroom Tyrosinase (TYR) (Agaricus bisporus, UniProt C7FF04)
T1 construct: gene PPO3
Experiment: colorimetric L-Dopa oxidation assay, single-concentration inhibition at […]; also retrieved by ligand fishing on paper-immobilized tyrosinase
Assay type: biochemical

T1 sequence (C7FF04 2-392): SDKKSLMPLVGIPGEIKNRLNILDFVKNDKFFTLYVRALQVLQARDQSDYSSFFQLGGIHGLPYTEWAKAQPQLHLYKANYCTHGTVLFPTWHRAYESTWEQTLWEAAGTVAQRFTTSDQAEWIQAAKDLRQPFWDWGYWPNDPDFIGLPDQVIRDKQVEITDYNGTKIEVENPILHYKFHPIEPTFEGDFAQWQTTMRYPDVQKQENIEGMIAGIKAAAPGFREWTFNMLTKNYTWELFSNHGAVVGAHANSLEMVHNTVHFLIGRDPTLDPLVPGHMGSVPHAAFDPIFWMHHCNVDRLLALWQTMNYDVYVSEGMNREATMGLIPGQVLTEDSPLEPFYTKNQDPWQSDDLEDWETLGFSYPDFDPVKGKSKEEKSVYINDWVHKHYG

- inhibition at 25 µM: 29.4%
Structure (SMILES): O=C(/C=C/c1ccc(O)c(O)c1)c1ccc(O[C@@H]2O[C@H](CO)[C@@H](O)[C@H](O)[C@H]2O)c(O)c1O [compound 2, marein]
